We go through five compounds from US9969695B2, “N-substituted imidazole carboxylic ester chiral compound containing an ether side chain, its preparation and application” (WEST CHINA HOSPITAL, SICHUAN UNIVERSITY, priority 2013, dated 2018).

Common to all, as to type: in vivo
Data set [1] relates to Male SD rats. Kind of data set: ED50 by the sequential method, extinction of rat body-righting reflex. The note with it: etomidate as Etomidate-Lipuro, extinction of body-righting reflex ≥30 s; for ED50: Rattus norvegicus, read-out: 50% effective dose (ED50). How it is done: (§1) Male SD rats (250˜300 g) were used as an experimental animal, and 50% effective dose (ED50) was determined by the sequential method. Three compounds were dissolved in a solvent of DMSO, and etomidate was used as the commercially-available formulation (B BRAUN, Etomidate-Lipuro®, 20 mg/10 mL). Based on the initial dose of 1 mg/kg, other dosages were adjusted as the ratio of 0.8, and the ED50 values of the three compounds and etomidate were determined. Extinction time ≥30 s for the rat body-righting reflex was the positive marker while no disappearance of the righting reflex was considered invalid. Based on the experimental results, four cross-points were formed, and the ED50 values were calculated. […] Then, the respective 2ED50 values of the three compounds and etomidate were taken in an equivalent dose, which were administered via the rat tail vein. The preliminary effects were evaluated in the four rat groups, which were given the three compounds of Formulas (I), (IV), (V) and etomidate, respectively, with 10 rats in each group. […] The last time of the Formula (I) compound and etomidate was 5-6 min, but the last time of the Formulas (IV) and (V) compounds was 10-20 min. […] DMSO had no pharmacological effects, and no adverse effects were observed. The onset time, the last time, and the adverse effects (types, incidence rates) induced by the three compounds and etomidate are shown in the following table:
(§2) Male SD rats (250˜300 g) were used as an experimental animal, and 50% effective dose (ED50) was determined by the sequential method. Hydrochlorides of the three compounds were dissolved in the solvent of normal saline, and etomidate was used as the commercially-available formulation (B BRAUN, Etomidate-Lipuro®, 20 mg/10 mL). The initial dose was 1 mg/kg, and the ratio of dosage variation was 0.8, which was applied in the determination of ED50 values of Formula (I) hydrochloride, Formula (I) hydrobromide, Formula (I) trifluoroacetate, and etomidate. Extinction time (≥30 s) of the rat body-righting reflex was the positive marker while no disappearance of the reflex was considered invalid. Based on the experimental results, four cross-points were formed, and then ED50 values were calculated. […] Then, the respective 2ED50 values of the three compounds and etomidate were taken in an equivalent dose, which were administered via the rat tail vein. The preliminary effects were evaluated in the four rat groups, which were given the three compounds of Formulas (I) hydrochloride, Formula (I) hydrobromide, Formula (I) trifluoroacetate, and etomidate, respectively, with 10 rats in each group. […] Palinesthesia time was in arrange of 5-10 min. During the test period, no significant difference was found in the types and the incidence rates of adverse effects in each group. DMSO had no pharmacological effects, and no adverse effect was found. The onset time, the last time, and the types and the incidence rates of adverse effects induced by the three salt compounds and etomidate are shown in the following table: […]

Data set [2] deals with Male SD rats. Kind of data set: Onset time, last time, palinesthesia time and adverse effects at 2ED50 via the rat tail vein. The note with it: for Incidence of adverse effect: Muscle tremor / Onset time / Incidence of adverse effect: Anal sphincter dilatation / Incidence of adverse effect: Bucking / Incidence of adverse effect: Hindlimb stiffness / Incidence of adverse effect: Tic of limbs / Incidence of adverse effect: Vomiting: 10 rats per group; for Last time: disappearance to recovery of body-righting reflex; for Palinesthesia time / Palinesthesia tune: recovery to full recovery of body-righting reflex. How it is done: as §1, §2

The subject of data set [3] is self-synthesis of adrenocortical hormone. Kind of data set: Increase degree of cortical hormone (cortisol, corticosterone) in blood serum after ACTH stimulation, ELISA. Conditions: Beagle dogs; for Increase degree of corticosterone / Increase degree of cortisol: 2ED50, dexamethasone baseline, 1 h after ACTH. The procedure: Male Beagle dogs (10±2 kg) were selected as an experimental animal. After administration, the contents of corticosterone and cortisol in the blood serum of the Beagle dogs were determined by the ELISA kit and the enzyme-labelled instrument. The 20 Beagle dogs were divided into five groups, with four dogs in each group. After respective administration of dexamethasone (0.01 mg/kg), the level of adrenal cortex in the dog body was lowered to the baseline, and those levels of corticosterone and cortisol at this time were used as the base value (baseline). […] After 10 min, ACTH (adrenocortical hormone) was given to stimulate and cause an increased level of cortex in the dog body. One hour after administration of ACTH, both corticosterone and cortisol levels in the blood serum of the Beagle dogs were determined, and the ratio of the peak value to the base value of the cortex levels was calculated. This ratio indicated the increase degree of the cortical hormone. A greater degree indicated a less inhibitory effect of the medicine on the cortical hormone. After administration, compounds of Formulas (I), (IV) and (V), DMSO, and the increase degree of the cortical hormone followed by stimulation of ACTH are shown in the following table:
Male Beagle dogs (10±2 kg) were selected as an experimental animal. After administration, the contents of corticosterone and cortisol in the blood serum of the Beagle dogs were determined by the ELISA kit and the enzyme-labelled instrument. The 20 Beagle dogs were divided into five groups, with four dogs in each group. After respective administration of dexamethasone (0.01 mg/kg), the level of adrenal cortex in the dog body was lowered to the baseline, and the levels of corticosterone and cortisol at this time were used as the baseline. Then, the equivalent doses (2ED50) of the compounds of Formula (I) hydrochloride (3.62 mg/kg), hydrobromide (3.86 mg/kg), trifluoroacetate (4.66 mg/kg), the positive control medicine Etomidate-Lipuro® (0.9 mg/kg), and the equal-volume of solvent DMSO were respectively administrated into the dogs of the five groups. After 10 min, ACTH was given to stimulate and cause the cortex levels increase in the dog body. One hour after administration of ACTH, both the cortical hormone levels were determined, and the ratio of the peak value to the baseline of cortex levels was calculated. This ratio indicated the increase degree of the cortical hormone. A greater degree of increase indicated a less inhibitory effect of the medicine on the cortical hormone. After administrations, the three salts of the Formula (I) compound, DMSO, the increase degree of the cortical hormone followed by stimulation of ACTH are shown in the following table: […]
In general terms: ELISA stands for enzyme-linked immunosorbent assay.

Where [4] appears, read: Example 9, 2ED50 via tail vein, listed as Formula (I) hydrobromide.
Where [5] appears, read: Example 11, ratio of peak value to baseline.
[6] abbreviates: Example 10, ratio of peak value to base value.
The mark [7] stands for this setting: Example 9, 2ED50 via tail vein, listed as Formula (I) hydrochloride.

Molecules are shown by their SMILES. Where “and” joins values, the source holds several entries; their conditions need not be identical. Equal entries are not always repeated. Structures can show the parent of a compound that is named as a salt. Where two headings read alike, the source gives them in different places.

With `COCCOC(=O)c1cncn1[C@H](C)c1ccccc1` [Hydrobromide of Formula (I) compound], in the data set on Male SD rats [1] (Example 9, salts in normal saline, listed as Formula (I) hydrobromide), the “50% effective dose (ED50)” value is listed as 3.09 mg/kg. In the data set on Male SD rats [2] (Example 9), the “sedative-hypnotic and general anesthetic effects (conclusion in words)” value was “good sedative-hypnotic and general anesthetic effects”. Moreover, in the data set with Male SD rats [2] (Example 9, 2ED50 via tail vein), the “Incidence of adverse effect: Muscle tremor” value (“Incidence … Muscle tremor” for short) is reported as 50%, the Onset time result is reported as “Immediate”, the Last time is on record as 4.6 ± 1.1 min and the Palinesthesia time stood at 5.8 ± 1.2 min. In addition, in the data set with Male SD rats [2] (setting [4]), the Onset time result is “immediate action” and the Last time was in the range of 5 to 6 min. Besides, the “cortical hormone increase after stimulation by ACTH (conclusion in words)” value in data set [3] (Example 11) was “lower than that in the blank group of the dogs, but obviously higher than that in the positive medicine etomidate group of the dogs”. In data set [3] (setting [5]), the “Increase degree of corticosterone” value was determined as 12.36 ± 6.65 and the “Increase degree of cortisol” value was found to be 29.14 ± 11.86.

Broadly, the ED50 is the dose at which the effect has come halfway, by size or by number of responders. Regarding `COCCOC(=O)c1cncn1[C@@H](C)c1ccccc1` [Compound IV], in the data set with Male SD rats [1] (Example 8, compounds in DMSO), the ED50 came to 7.46 mg/kg. In the data set with Male SD rats [2] (Example 8), the “sedative-hypnotic and general anesthetic effects (conclusion in words)” value is “lower potency, elongated onset time, extended last time, and increased types and incidence rates of adverse effects”. Moreover, in the data set with Male SD rats [2] (Example 8, 2ED50 via tail vein), the “types and incidence rates of the adverse effects (in words)” value was “obviously increased”; the “Incidence of adverse effect: Anal sphincter dilatation” value is recorded as “(5/10), 50%;”; the “Incidence of adverse effect: Bucking” value was “Bucking (6/10), 60%”; the “Incidence of adverse effect: Hindlimb stiffness” value is on record as 50%;. In the data set with Male SD rats [2] (Example 8, 2ED50 via tail vein), the “Incidence … Muscle tremor” value is reported as 100%;; the “Incidence of adverse effect: Tic of limbs” value is “Tic of limbs (7/10), 70%;”; the “Incidence of adverse effect: Vomiting” value is recorded as “Vomiting (7/10), 70%;”; the Onset time is 2.2 ± 0.8 min. Besides, in the data set with Male SD rats [2] (Example 8, 2ED50 via tail vein), the Last time is 20.3 ± 4.6 min and the Palinesthesia tune amounted to 21.4 ± 2.3 min. For the same compound, in the data set with Male SD rats [2] (Example 8, 2ED50 via tail vein, listed as Formula (IV)), the Onset time entry is recorded as “a little slower action”. For the same compound, in data set [3] (setting [6]), the “Increase degree of corticosterone” value came to 1.19 ± 0.87 and the “Increase degree of cortisol” value was found to be 3.32 ± 2.36.

For `COCCOC(=O)c1cncn1[C@H](C)c1ccccc1` [Compound I], the ED50 with Male SD rats [1] (Example 8, compounds in DMSO) was found to be 2.1 mg/kg. Besides, the “sedative-hypnotic and general anesthetic effects (conclusion in words)” value with Male SD rats [2] (Example 8) was “good sedative-hypnotic and general anesthetic effects”. In the data set with Male SD rats [2] (Example 8, 2ED50 via tail vein), the “Incidence … Muscle tremor” value was 70%, the Onset time result is on record as “Immediate”, the Last time is listed as 5.8 ± 0.9 min and the Palinesthesia tune amounted to 4.8 ± 1.3 min. Further, in the data set on Male SD rats [2] (Example 8, 2ED50 via tail vein, listed as Formula (I) compound), the Onset time result is listed as “immediate action”. Besides, in data set [3] (setting [6]), the “Increase degree of corticosterone” value came out at 11.46 ± 4.30 and the “Increase degree of cortisol” value amounted to 19.88 ± 19.8. In addition, the “inhibition on cortical hormone (conclusion in words)” value in data set [3] (Example 10, after stimulation by ACTH) is recorded as “obviously reduced when compared with that of the control medicine etomidate”.

On to `COCCOC(=O)c1cncn1[C@H](C)c1ccccc1` [Hydrochloride of Formula (I) compound], for which, in the data set with Male SD rats [1] (Example 9, salts in normal saline), the ED50 was 2.58 mg/kg. Also, the “sedative-hypnotic and general anesthetic effects (conclusion in words)” value in the data set with Male SD rats [2] (Example 9) was “good sedative-hypnotic and general anesthetic effects”. Moreover, in the data set on Male SD rats [2] (Example 9, 2ED50 via tail vein), the “Incidence … Muscle tremor” value turned out to be 60%, the Onset time entry was “Immediate”, the Last time came out at 5.8 ± 0.7 min and the Palinesthesia time worked out at 5.6 ± 1.8 min. In the data set with Male SD rats [2] (setting [7]), the Onset time result is recorded as “immediate action” and the Last time was 5 to 7 min. Also, in data set [3] (Example 11), the “cortical hormone increase after stimulation by ACTH (conclusion in words)” value is recorded as “lower than that in the blank group of the dogs, but obviously higher than that in the positive medicine etomidate group of the dogs”. Besides, in data set [3] (setting [5]), the “Increase degree of corticosterone” value came out at 18.14 ± 5.66 and the “Increase degree of cortisol” value was 25.36 ± 14.77.

Consider `COCCOC(=O)c1cncn1C(C)c1ccccc1` (racemic) [Compound V], for which the ED50 in the data set on Male SD rats [1] (Example 8, compounds in DMSO) was 10.4 mg/kg. In addition, in the data set on Male SD rats [2] (Example 8), the “sedative-hypnotic and general anesthetic effects (conclusion in words)” value is “lower potency, elongated onset time, extended last time, and increased types and incidence rates of adverse effects”. Also, in the data set with Male SD rats [2] (Example 8, 2ED50 via tail vein), the “types and incidence rates of the adverse effects (in words)” value is “obviously increased”; the “Incidence of adverse effect: Anal sphincter dilatation” value is given as “(2/10), 20%;”; the “Incidence of adverse effect: Bucking” value was “Bucking (4/10), 40%”; the “Incidence of adverse effect: Hindlimb stiffness” value was 20%;. In the data set on Male SD rats [2] (Example 8, 2ED50 via tail vein), the “Incidence … Muscle tremor” value is 60%;; the “Incidence of adverse effect: Tic of limbs” value is reported as “Tic of limbs (5/10), 50%;”; the “Incidence of adverse effect: Vomiting” value is reported as “Vomiting (5/10), 50%;”; the Onset time result was “a little slower action and 1.0 ± 0.6 min”. In the data set on Male SD rats [2] (Example 8, 2ED50 via tail vein), this compound came in with a Last time of 10.8 ± 3.5 min and a Palinesthesia tune of 15.1 ± 2.6 min. Also, in data set [3] (setting [6]), the “Increase degree of corticosterone” value is given as 3.18 ± 1.15 and the “Increase degree of cortisol” value is 5.17 ± 2.28.
